Measurements from ChEMBL document CHEMBL1201862, “PubChem BioAssay data set” (2004).
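48-hour exposure; five concentrations; linearly interpolated endpoints. GI50 marks 50% less growth.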 Active and inactive are the calls of the source. Rule as the data show it: active = GI50 up to about 1.1 µM and inactive = higher.

Columns and labels:
Assay in all cases: NCI-60 cell line screen, 48 h
TK-10 = test system: TK-10
T47D = test system: T47D
CCRF-CEM = test system: CCRF-CEM
SK-MEL-28 = test system: SK-MEL-28
Hs-578T = test system: Hs-578T
HCC 2998 = test system: HCC 2998
SNB-19 = test system: SNB-19
NCI-H226 = test system: NCI-H226
SNB-75 = test system: SNB-75
SK-OV-3 = test system: SK-OV-3
OVCAR-8 = test system: OVCAR-8
MDA-N = test system: MDA-N
SF-268 = test system: SF-268
DU-145 = test system: DU-145
NCI-H460 = test system: NCI-H460
M14 = test system: M14
SN12C = test system: SN12C
MDA-MB-435 = test system: MDA-MB-435
A498 = test system: A498
RPMI-8226 = test system: RPMI-8226
HL-60 = test system: HL-60
OVCAR-3 = test system: OVCAR-3
KM12 = test system: KM12
HT-29 = test system: HT-29
SW-620 = test system: SW-620
UACC-257 = test system: UACC-257
786-0 = test system: 786-0
IGROV-1 = test system: IGROV-1
SF-539 = test system: SF-539
Malme-3M = test system: Malme-3M
LOX IMVI = test system: LOX IMVI
U-251 = test system: U-251
HOP-92 = test system: HOP-92
OVCAR-4 = test system: OVCAR-4
NCI-H522 = test system: NCI-H522
MOLT-4 = test system: MOLT-4
UACC-62 = test system: UACC-62
NCI-H23 = test system: NCI-H23
ACHN = test system: ACHN
SK-MEL-5 = test system: SK-MEL-5
HCT-15 = test system: HCT-15
A549 = test system: A549
HCT-116 = test system: HCT-116
EKVX = test system: EKVX
COLO 205 = test system: COLO 205
SF-295 = test system: SF-295
NCI/ADR-RES = test system: NCI/ADR-RES
OVCAR-5 = test system: OVCAR-5
K562 = test system: K562
SR = test system: SR
UO-31 = test system: UO-31
SK-MEL-2 = test system: SK-MEL-2
MCF7 = test system: MCF7
BT-549 = test system: BT-549
CAKI-1 = test system: CAKI-1
MDA-MB-231 = test system: MDA-MB-231
PC-3 = test system: PC-3
HOP-62 = test system: HOP-62

O=C1CSC(/C=C/c2ccccc2)N1c1ccc(-n2c(-c3ccccc3)nc3ccccc3c2=O)cc1 (stereo unspecified)
GI50 (TK-10): > 100 µM (inactive)
GI50 (T47D): 17 µM (inactive)
GI50 (CCRF-CEM): 66.1 µM (inactive)
GI50 (SK-MEL-28): > 100 µM (inactive)
GI50 (Hs-578T): > 100 µM (inactive)
GI50 (HCC 2998): 99.5 µM (inactive)
GI50 (SNB-19): > 100 µM (inactive)
GI50 (NCI-H226): 48.8 µM (inactive)
GI50 (SNB-75): 22.6 µM (inactive)
GI50 (SK-OV-3): 19.3 µM (inactive)
GI50 (OVCAR-8): > 100 µM (inactive)
GI50 (MDA-N): > 100 µM (inactive)
GI50 (SF-268): 95.5 µM (inactive)
GI50 (DU-145): > 100 µM (inactive)
GI50 (NCI-H460): 87.3 µM (inactive)
GI50 (M14): > 100 µM (inactive)
GI50 (SN12C): > 100 µM (inactive)
GI50 (MDA-MB-435): > 100 µM (inactive)
GI50 (A498): > 100 µM (inactive)
GI50 (RPMI-8226): > 100 µM (inactive)
GI50 (HL-60): > 100 µM (inactive)
GI50 (OVCAR-3): > 100 µM (inactive)
GI50 (KM12): 33.1 µM (inactive)
GI50 (HT-29): > 100 µM (inactive)
GI50 (SW-620): > 10 µM (inactive)
GI50 (UACC-257): > 100 µM (inactive)
GI50 (786-0): > 100 µM (inactive)
GI50 (IGROV-1): 74.3 µM (inactive)
GI50 (SF-539): 71.4 µM (inactive)
GI50 (Malme-3M): > 100 µM (inactive)
GI50 (LOX IMVI): 95.3 µM (inactive)
GI50 (U-251): > 100 µM (inactive)
GI50 (HOP-92): > 100 µM (inactive)
GI50 (OVCAR-4): 19.4 µM (inactive)
GI50 (NCI-H522): 50.6 µM (inactive)
GI50 (MOLT-4): 30.9 µM (inactive)
GI50 (UACC-62): 45.1 µM (inactive)
GI50 (NCI-H23): > 100 µM (inactive)
GI50 (ACHN): > 10 µM (inactive)
GI50 (SK-MEL-5): 68.9 µM (inactive)
GI50 (HCT-15): 86.9 µM
GI50 (A549): > 100 µM (inactive)
GI50 (HCT-116): > 100 µM (inactive)
GI50 (EKVX): > 100 µM (inactive)
GI50 (COLO 205): > 100 µM (inactive)
GI50 (SF-295): > 100 µM (inactive)
GI50 (NCI/ADR-RES): 59.2 µM (inactive)
GI50 (OVCAR-5): > 100 µM (inactive)
GI50 (K562): > 100 µM (inactive)
GI50 (SR): 37.1 µM (inactive)
GI50 (UO-31): 16.8 µM (inactive)
GI50 (SK-MEL-2): > 100 µM (inactive)
GI50 (MCF7): 52.2 µM (inactive)
GI50 (BT-549): > 100 µM (inactive)
GI50 (CAKI-1): > 100 µM (inactive)
GI50 (MDA-MB-231): > 100 µM (inactive)
GI50 (PC-3): 61.2 µM (inactive)
GI50 (HOP-62): 42.7 µM (inactive)

c1ccc2c(-c3ccnc(-c4c[nH]c5ccccc45)n3)c[nH]c2c1
GI50 (TK-10): 8.67 µM (inactive)
GI50 (T47D): 3.85 µM (inactive)
GI50 (CCRF-CEM): 1.51 µM (inactive)
GI50 (SK-MEL-28): 6.9 µM (inactive)
GI50 (Hs-578T): 2.81 µM (inactive)
GI50 (HCC 2998): 2.79 µM (inactive)
GI50 (SNB-19): 4.81 µM (inactive)
GI50 (SK-OV-3): 10.7 µM (inactive)
GI50 (OVCAR-8): 5.93 µM (inactive)
GI50 (MDA-N): 2.78 µM (inactive)
GI50 (SF-268): 10.6 µM (inactive)
GI50 (DU-145): 12.4 µM (inactive)
GI50 (NCI-H460): 2.87 µM (inactive)
GI50 (M14): 1.99 µM (inactive)
GI50 (SN12C): 2.78 µM (inactive)
GI50 (MDA-MB-435): 4.52 µM (inactive)
GI50 (A498): 2.23 µM (inactive)
GI50 (RPMI-8226): 1.91 µM (inactive)
GI50 (HL-60): 2.29 µM (inactive)
GI50 (OVCAR-3): 6.4 µM (inactive)
GI50 (KM12): 3.94 µM (inactive)
GI50 (HT-29): 2.7 µM (inactive)
GI50 (SW-620): 4.86 µM (inactive)
GI50 (UACC-257): 4.34 µM (inactive)
GI50 (786-0): 2.12 µM (inactive)
GI50 (IGROV-1): < 0.01 µM (active)
GI50 (SF-539): 4.37 µM (inactive)
GI50 (LOX IMVI): 2.82 µM (inactive)
GI50 (U-251): 3.86 µM (inactive)
GI50 (HOP-92): 1.7 µM (inactive)
GI50 (OVCAR-4): 8.69 µM (inactive)
GI50 (MOLT-4): 1.87 µM (inactive)
GI50 (UACC-62): 1.95 µM (inactive)
GI50 (ACHN): 3.13 µM (inactive)
GI50 (SK-MEL-5): 3.27 µM (inactive)
GI50 (HCT-15): 3.19 µM
GI50 (A549): 3.27 µM (inactive)
GI50 (HCT-116): 4.36 µM (inactive)
GI50 (EKVX): 6.4 µM (inactive)
GI50 (COLO 205): 5.45 µM (inactive)
GI50 (SF-295): 2.93 µM (inactive)
GI50 (NCI/ADR-RES): 16.4 µM (inactive)
GI50 (OVCAR-5): > 100 µM (inactive)
GI50 (K562): 4.13 µM (inactive)
GI50 (SR): 4.25 µM (inactive)
GI50 (UO-31): 3.98 µM (inactive)
GI50 (SK-MEL-2): 4.16 µM (inactive)
GI50 (MCF7): 2.74 µM (inactive)
GI50 (BT-549): > 100 µM (inactive)
GI50 (CAKI-1): 4.25 µM (inactive)
GI50 (MDA-MB-231): 1.85 µM (inactive)
GI50 (PC-3): 2.72 µM (inactive)
GI50 (HOP-62): 10.4 µM (inactive)
